Experimental findings from US5108996A, “19-nor-3-keto steroids” (Roussel Uclaf, priority 1989, dated 1992) are described below.

The subject of assay [1] is lipid peroxidation (MDA formation) in rat liver microsomes. The assay is described as follows: MDA formation triggered non-enzymatically by ferrous sulfate in rat liver microsomes (antioxidant activity). The class given is biochemical, S-D rat. To be noted: 15 min 37° C. The procedure:
(§1) The antioxidant activity was tested in vitro by the test of formation of malondialdehyde (MDA) which measures lipid peroxidation triggered: either a) non-enzymatically by ferrous sulfate, in 1) brain homogenates, or 2) rat liver microsomes or b) enzymatically by NADPH and carbon tetrachloride in rat liver microsomes.
1.2-MDA formation was measured on liver microsomes of S-D rats (200 g)
prepared from the fraction sedimented at 100,000 G of a liver homogenate
in a sucrose buffer, of which the fraction remaining insoluble at 100,000
G in 100 mM sodium pyrophosphate buffer pH 7.4 was used and which was
homogenized in 100 mM sodium phosphate buffer pH 7.4 containing 20% of
glycerol and then stored at -80° C.
The microsomes were incubated for 15 minutes at 37° C. in 1 ml containing 35 mM Tris-HCl buffer/0.1M KCl pH 7.4, 1 mg of microsomal protein, 5 microliters of ethanol containing or not containing the test product and 250 microliters of ascorbate solution in the Tris buffer (0.5 mM final), after the addition of 250 microliters of ferrous sulfate prepared immediately before use in the Tris buffer ([…]). The reaction was stopped by adding 2 ml of a 1M solution of trichloroacetic acid in 0.25M hydrochloric acid containing 0.4% of thiobarbituric acid. The mixture was heated to 85° C. for 25 minutes, cooled and centrifuged for 15 minutes at 3500 rpm, and the OD of the supernatant fraction was then read at 535 nm. The reaction blanks in the absence of Fe^++ were performed at the same time and the percentage inhibition was calculated as above.

Assay [2] shares this test system. The assay is described as follows: MDA formation triggered enzymatically by NADPH and carbon tetrachloride in liver microsomes of phenobarbital-pretreated rats (antioxidant activity). The assay is classed as biochemical. To be noted: NADPH/CCl4. How it is done:
as §1
2-MDA formation was measured on liver microsomes of rats pretreated with phenobarbital (80 mg/kg in 3 i.p. injections), prepared as described above. The microsomes were incubated for 15 minutes at 37° C. in 1 ml containing 0.1M pH 7.4 phosphate buffer, 1 mg of microsomal protein, 5 microliters of ethanol containing or not containing the test product and 5 microliters of carbon tetrachloride (5.5 mM final) after the addition of 50 microliters of NADPH solution in the phosphate buffer (1 mM final). The reaction was stopped and the assay was then performed under the conditions described above.

For assay [3], the system named is lipid peroxidation (MDA formation) in brain homogenates. As to the kind of experiment: MDA formation triggered non-enzymatically by ferrous sulfate in rat brain homogenates (antioxidant activity). The assay is classed as biochemical, S-D rat. Particulars: brain homogenate, 60 min 37° C. The procedure: as §1
1.1-MDA formation was measured on 10-fold diluted (V/V) homogenates of brains of S-D (200 g), prepared in Krebs buffer pH 7.4 by the conditions described in J. Biol. Chem. Vol., 262 (1987), p. 10438 to 10440. 1 ml of homogenate was incubated for 60 minutes at 37° C. in the presence of 25 microliters of ethanol or water or a mixture of the two, depending on the product, containing or not containing the test product, after the addition of 25 microliters of ferrous sulfate solution prepared immediately before use in water outgassed with argon ([…]). 0.25 ml of incubated mixture was withdrawn and 1.5 ml of 1% strength phosphoric acid, 0.25 ml of a solution containing 200 microliters of deferoxamine (Desferal®, Ciba Geigy) in water, 10 microliters of butylated hydroxytoluene (BHT) at a concentration of 8.7 mg/ml in ethanol and 0.5 ml of thiobarbituric acid (TBA) at a concentration of 0.6% in water were added. The mixture was heated to 100° C. for 45 minutes and cooled. 4 ml of n-butanol were added and the mixture was centrifuged for 15 minutes at 4000 rpm and the OD of the supernatant fraction was then read at 535 nm. The reaction blanks in the absence of Fe^++ were incubated under the same conditions. The percentage inhibition was calculated as follows: […]

In assay [4] the test system is ferric nitrilotriacetate (NTA-Fe+++) intoxication in rats. The assay is described as follows: Detoxifying activity in vivo: mortality induced in rats by ferric nitrilotriacetate (NTA-Fe+++) intoxication. On the set-up: species or system Wistar male rat. To be noted: 5 mg/kg i.p. 30 minutes before 15 mg/kg of poison (NTA-Fe+++, mg of iron/kg); none alive after 4 hours with poison alone. How it is done: The detoxifying activity after intoxication associated with lipid peroxidaton was tested for by measurement of the mortality induced in rats by ferric nitrilotriacetate (NTA-Fe^+++) intoxication. A solution of NTA-Fe^+++ complex was prepared immediately before use, suspended in sesame oil and injected intraperitoneally at doses of 5, 10 or 15 mg of iron/kg of body weight into non-fasted Wistar male rats weighing approximately 200 g. The survival rate of rats which received a prior injection of the test product at a dose of 5 mg/kg intraperitoneally, 30 minutes before the injection of 15 mg/kg of poison was determined. Whereas none of the animals treated with the poison alone survived after 4 hours, 20% of the animals pretreated with the product of Example 2 were still alive 15 days later.

Assay [5] relates to arachidonic acid-induced plantar oedema. As to the kind of experiment: Arachidonic acid-induced plantar oedema (anti-inflammatory activity). The assay is classed as in vivo, Sprague-Dawley male rat. To be noted: for Change in volume of the foot 1 hour after AA (mean ± s.e.m.): controls 0.58 ± 0.03; for % inhibition: oedema, relative to control. How it is done: The anti-inflammatory activity was assessed in vivo by measurement of the anti-oedematous activity in the test of arachidonic acid-induced plantar oedema described by Di Martino et al. (Agents and Actions, 1987 21 3/4 303). The experimental animals were Sprague-Dawley strain SPF male rats weighing 150 to 170 g (Iffa Credo).
This test was performed on groups of 8 male rats weighing 130 to 150 g, fasted for 16 hours. Arachidonic acid was injected under the plantar aponeurosis of one hindfoot at a dose of 0.2 mg in a volume of 0.1 ml. The volume of the foot was measured using a water plethysmometer before and 1 hour after the injection of arachidonic acid. The difference between these two volumes represented the degree of inflammation. The animals were treated with the test products or the vehicle alone at the same time as the injection of arachidonic acid. The test products were administered orally in a volume of 4 ml/kg after being suspended in 0.5% strength methyl cellulose. All the experiments were carried out with dexamethasone administered orally at a dose of 0.5 mg/kg as reference product.
The results were expressed as a change in volume of the foot 1 hour after the injection of arachidonic acid (AA) in the absence or in the presence of the test product administered at different doses. Statistical interpretation of the results was performed according to Dunnett's test (*p<[…]) or according to the Mann-Whitney test (^o p<0.05-^oo p<0.01). For each dose administered orally, the percentage inhibition of the oedema by the test product was calculated relative to the control.

For `CN(C)c1ccc([C@H]2C[C@@]3(C)[C@@H](CC[C@@]3(O)C#CCN3CCN(c4cc(N5CCCC5)nc(N5CCCC5)n4)CC3)[C@@H]3CCC4=CC(=O)CCC4=C32)cc1` [Example 1, 11β-[4-(dimethylamino)-phenyl]-17α-[3-{4-[2,6-bis(1-pyrrolidinyl)-4-pyrimidinyl]-1-piperazinyl}-1-propynyl]-Δ^4,9-estradiene-17β-ol-3-one], the percentage of inhibition in assay [1] (1 × 10^-5 M) was 76 ± 0.8; in assay [1] (1 × 10^-6 M), 4 ± 0.6; in assay [1] (5 × 10^-6 M), 47; in assay [2] (1 × 10^-5 M), 72 ± 3; in assay [2] (1 × 10^-6 M) it was 14 ± 4; in assay [2] (5 × 10^-6 M), 58 ± 5. For the same compound, the percentage of inhibition is 42.6 ± 7.5 in assay [3] (1 × 10^-4 M), 9.9 ± 6.4 in assay [3] (1 × 10^-5 M) and 47.5 ± 8.8 in assay [3] (5 × 10^-4 M).
On to `CN(C)c1ccc([C@H]2C[C@@]3(C)[C@@H](CC[C@@]3(O)C#CCN3CCN(c4cc(N5CCCC5)nc(N5CCCC5)n4)CC3)[C@@H]3CCC4=CC(=O)CCC4=C32)cc1` [Example 2, 11β-[4-(dimethylamino)-phenyl]-17α-[3-{4-[2,6-bis(1-pyrrolidinyl)-4-pyrimidinyl]-1-piperazinyl}-1-propynyl]-Δ^4,9-estradien-17β-ol-3-one methane sulfonate], for which the percentage of inhibition was 98.5 in assay [1] (1 × 10^-5 M); 48 ± 1 in assay [1] (1 × 10^-6 M); 91 in assay [1] (5 × 10^-6 M); 91 ± 3 in assay [2] (1 × 10^-5 M); 28 ± 3 in assay [2] (1 × 10^-6 M); 82 ± 3 in assay [2] (5 × 10^-6 M). Also, the percentage of inhibition in assay [3] (1 × 10^-4 M) is on record as 59.6 ± 4.4; in assay [3] (1 × 10^-5 M), 16.0 ± 5.0; in assay [3] (5 × 10^-4 M), 60.9 ± 3.3. Moreover, the “animals still alive 15 days later (survival rate)” value in assay [4] was 20%.
As to `CCN(CC)c1ccc(N2CCN(CC#C[C@]3(O)CC[C@H]4[C@@H]5CCC6=CC(=O)CCC6=C5[C@@H](c5ccc(N(C)C)cc5)C[C@@]43C)CC2)nc1N(CC)CC` [Example 3, 11β-[4-(dimethylamino)-phenyl]-17α-[3-{4-[5,6-bis(diethylamino)-2-pyridyl]-1-piperazinyl}1-propynyl]-Δ^4,9-estradiene-17β-ol-3-one], the percentage of inhibition stood at 99.9 in assay [1] (1 × 10^-5 M); 78.2 ± 0.9 in assay [1] (1 × 10^-6 M); 5.2 ± 1 in assay [1] (1 × 10^-7 M); 99.5 in assay [1] (5 × 10^-6 M); 97 in assay [2] (1 × 10^-5 M); 40 ± 1 in assay [2] (1 × 10^-6 M). Also, the percentage of inhibition came out at 88 ± 2 in assay [2] (5 × 10^-6 M), 49.2 ± 2.3 in assay [3] (1 × 10^-4 M), 32.6 ± 10.1 in assay [3] (1 × 10^-5 M) and 59.1 ± 3.2 in assay [3] (5 × 10^-4 M). For the same compound, the entries for the “Change in volume of the foot 1 hour after AA (mean ± s.e.m.)” value in assay [5] (1 mg/kg oral), in assay [5] (4 mg/kg oral) and in assay [5] (20 mg/kg oral) were 0.48 ± 0.05 cm^3, 0.43 ± 0.06 cm^3 and 0.40 ± 0.04 cm^3, respectively. In addition, in assay [5] (low doses, oral), the anti-inflammatory activity entry is given as “significant anti-inflammatory activity”. Further, the “% inhibition” value in assay [5] (1 mg/kg oral) is recorded as -17%; in assay [5] (4 mg/kg oral), -27%; in assay [5] (20 mg/kg oral) it was -31%.
Consider `CCN(CC)c1ccc(N(CC)CC)c(N2CCN(CC#C[C@]3(O)CC[C@H]4[C@@H]5CCC6=CC(=O)CCC6=C5[C@@H](c5ccc(N(C)C)cc5)C[C@@]43C)CC2)n1` [Example 4, 17α-[3-{4-[3,6-bis(diethylamino)-2-pyridyl]-1]-piperazinyl}-1-propynyl]-11β-[4-(dimethylamino)-phenyl-Δ^4,9-estadiene-17β-ol-3-one], for which the percentage of inhibition in assay [1] (1 × 10^-5 M) is given as 99.5; in assay [1] (1 × 10^-6 M), 70 ± 2; in assay [1] (1 × 10^-7 M), 0 ± 2; in assay [1] (5 × 10^-6 M), 99.4; in assay [2] (1 × 10^-6 M), 48 ± 3; in assay [2] (5 × 10^-6 M), 85 ± 2. For the same compound, the values for the percentage of inhibition in assay [3] (1 × 10^-4 M), in assay [3] (1 × 10^-5 M) and in assay [3] (5 × 10^-4 M) were 58.9 ± 10.9, 48.6 ± 6.2 and 71.8 ± 10.2, respectively.

The term % inhibition denotes the drop in the measured response relative to a control, in per cent.
